Measured values: patent US10342760B2, “Lipid nanoparticles for transfection and related methods” (The University of British Columbia, priority 2013, dated 2019)

Test: Apparent pKa of ionizable cationic lipid
Format: physicochemical

## CCCCCCCCC1CC1CCCCCCCCC(CCCCCCCCC1CC1CCCCCCCC)OC(=O)CCCN(C)C (stereo not shown) [Cationic Lipid A, 1,17-bis(2-octylcyclopropyl)heptadecan-9-yl-4-(dimethylamino)butanoate]
  pKa: 6.3
